Measured values published in patent publication US10202361B2, “Pyridazinones as herbicides” (E I DU PONT DE NEMOURS AND COMPANY, priority 2014, dated 2019).

Tests used:
Experiment in all cases: Test D pre-/postemergence controlled growth environment herbicide test
Format in all cases: in vivo
Conditions in all cases: scale 0 to 100
[1] = test system: buckwheat, wild (wild buckwheat, Polygonum convolvulus)
In short: (§1)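 Herbicidal effect, both preemergence (silt loam soil) and postemergence (1- to 4-leaf plants, peat-based medium), was scored 14–21 d post-treatment on a 0–100 control scale relative to untreated plants; applications used a non-phytotoxic solvent formulation with surfactant.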

[2] = test system: oat, wild (wild oat, Avena fatua)
In short: as §1

[3] = test system: chamomile (scentless chamomile, Matricaria inodora)
In short: as §1

[4] = test system: field poppy (Papaver rhoeas)
In short: as §1

[5] = test system: downy bromegrass (Bromus tectorum)
In short: as §1

[6] = test system: chickweed (common chickweed, Stellaria media)
In short: as §1

[7] = test system: wheat, winter (winter wheat, Triticum aestivum)
In short: as §1

[8] = test system: radish, wild (wild radish, Raphanus raphanistrum)
In short: as §1

[9] = test system: windgrass (Apera spica-venti)
In short: as §1

[10] = test system: oilseed rape (Brassica napus)
In short: as §1

[11] = test system: barley, winter (winter barley, Hordeum vulgare)
In short: as §1

## COc1cc(=O)n(-c2ccc(F)cc2)nc1Cc1ccnc(C(F)(F)F)c1 [Compound 17, 2-(4-fluorophenyl)-5-methoxy-6-[[2-(trifluoromethyl)-4-pyridinyl]methyl]-3 (2H)-pyridazinone]
[1]; Postemergence, 31 g ai/ha
  Plant response rating: 10
[1]; Postemergence, 62 g ai/ha
  Plant response rating: 10
[1]; Postemergence, 125 g ai/ha
  Plant response rating: 40
[1]; Postemergence, 250 g ai/ha
  Plant response rating: 75
[1]; Postemergence, 500 g ai/ha
  Plant response rating: 100
[1]; Preemergence, 31 g ai/ha
  Plant response rating: 0
[1]; Preemergence, 62 g ai/ha
  Plant response rating: 10
[1]; Preemergence, 125 g ai/ha
  Plant response rating: 30
[1]; Preemergence, 250 g ai/ha
  Plant response rating: 100
[1]; Preemergence, 500 g ai/ha
  Plant response rating: 100
[2]; Postemergence, 31 g ai/ha
  Plant response rating: 10
[2]; Postemergence, 62 g ai/ha
  Plant response rating: 10
[2]; Postemergence, 125 g ai/ha
  Plant response rating: 10
[2]; Postemergence, 250 g ai/ha
  Plant response rating: 20
[2]; Postemergence, 500 g ai/ha
  Plant response rating: 50
[2]; Preemergence, 31 g ai/ha
  Plant response rating: 0
[2]; Preemergence, 62 g ai/ha
  Plant response rating: 0
[2]; Preemergence, 125 g ai/ha
  Plant response rating: 50
[2]; Preemergence, 250 g ai/ha
  Plant response rating: 75
[2]; Preemergence, 500 g ai/ha
  Plant response rating: 85
[3]; Postemergence, 31 g ai/ha
  Plant response rating: 20
[3]; Postemergence, 62 g ai/ha
  Plant response rating: 40
[3]; Postemergence, 125 g ai/ha
  Plant response rating: 40
[3]; Postemergence, 250 g ai/ha
  Plant response rating: 60
[3]; Postemergence, 500 g ai/ha
  Plant response rating: 60
[3]; Preemergence, 31 g ai/ha
  Plant response rating: 0
[3]; Preemergence, 62 g ai/ha
  Plant response rating: 80
[3]; Preemergence, 125 g ai/ha
  Plant response rating: 95
[3]; Preemergence, 250 g ai/ha
  Plant response rating: 100
[3]; Preemergence, 500 g ai/ha
  Plant response rating: 100
[4]; Postemergence, 31 g ai/ha
  Plant response rating: 50
[4]; Postemergence, 62 g ai/ha
  Plant response rating: 75
[4]; Postemergence, 125 g ai/ha
  Plant response rating: 75
[4]; Postemergence, 250 g ai/ha
  Plant response rating: 90
[4]; Postemergence, 500 g ai/ha
  Plant response rating: 100
[4]; Preemergence, 31 g ai/ha
  Plant response rating: 100
[4]; Preemergence, 62 g ai/ha
  Plant response rating: 100
[4]; Preemergence, 125 g ai/ha
  Plant response rating: 100
[4]; Preemergence, 250 g ai/ha
  Plant response rating: 100
[4]; Preemergence, 500 g ai/ha
  Plant response rating: 100
[5]; Postemergence, 31 g ai/ha
  Plant response rating: 10
[5]; Postemergence, 62 g ai/ha
  Plant response rating: 10
[5]; Postemergence, 125 g ai/ha
  Plant response rating: 15
[5]; Postemergence, 250 g ai/ha
  Plant response rating: 25
[5]; Postemergence, 500 g ai/ha
  Plant response rating: 30
[5]; Preemergence, 31 g ai/ha
  Plant response rating: 10
[5]; Preemergence, 62 g ai/ha
  Plant response rating: 10
[5]; Preemergence, 125 g ai/ha
  Plant response rating: 15
[5]; Preemergence, 250 g ai/ha
  Plant response rating: 30
[5]; Preemergence, 500 g ai/ha
  Plant response rating: 50
[6]; Postemergence, 31 g ai/ha
  Plant response rating: 10
[6]; Postemergence, 62 g ai/ha
  Plant response rating: 40
[6]; Postemergence, 125 g ai/ha
  Plant response rating: 60
[6]; Postemergence, 250 g ai/ha
  Plant response rating: 100
[6]; Postemergence, 500 g ai/ha
  Plant response rating: 100
[6]; Preemergence, 31 g ai/ha
  Plant response rating: 100
[6]; Preemergence, 62 g ai/ha
  Plant response rating: 100
[6]; Preemergence, 125 g ai/ha
  Plant response rating: 100
[6]; Preemergence, 250 g ai/ha
  Plant response rating: 100
[6]; Preemergence, 500 g ai/ha
  Plant response rating: 100
[7]; Postemergence, 31 g ai/ha
  Plant response rating: 0
[7]; Postemergence, 62 g ai/ha
  Plant response rating: 5
[7]; Postemergence, 125 g ai/ha
  Plant response rating: 10
[7]; Postemergence, 250 g ai/ha
  Plant response rating: 10
[7]; Postemergence, 500 g ai/ha
  Plant response rating: 20
[7]; Preemergence, 31 g ai/ha
  Plant response rating: 0
[7]; Preemergence, 62 g ai/ha
  Plant response rating: 0
[7]; Preemergence, 125 g ai/ha
  Plant response rating: 0
[7]; Preemergence, 250 g ai/ha
  Plant response rating: 30
[7]; Preemergence, 500 g ai/ha
  Plant response rating: 90
[8]; Postemergence, 31 g ai/ha
  Plant response rating: 30
[8]; Postemergence, 62 g ai/ha
  Plant response rating: 35
[8]; Postemergence, 125 g ai/ha
  Plant response rating: 60
[8]; Postemergence, 250 g ai/ha
  Plant response rating: 100
[8]; Postemergence, 500 g ai/ha
  Plant response rating: 100
[8]; Preemergence, 31 g ai/ha
  Plant response rating: 30
[8]; Preemergence, 62 g ai/ha
  Plant response rating: 100
[8]; Preemergence, 125 g ai/ha
  Plant response rating: 100
[8]; Preemergence, 250 g ai/ha
  Plant response rating: 100
[8]; Preemergence, 500 g ai/ha
  Plant response rating: 100
[9]; Postemergence, 31 g ai/ha
  Plant response rating: 0
[9]; Postemergence, 62 g ai/ha
  Plant response rating: 5
[9]; Postemergence, 125 g ai/ha
  Plant response rating: 5
[9]; Postemergence, 250 g ai/ha
  Plant response rating: 10
[9]; Postemergence, 500 g ai/ha
  Plant response rating: 25
[9]; Preemergence, 31 g ai/ha
  Plant response rating: 80
[9]; Preemergence, 62 g ai/ha
  Plant response rating: 80
[9]; Preemergence, 125 g ai/ha
  Plant response rating: 100
[9]; Preemergence, 250 g ai/ha
  Plant response rating: 100
[9]; Preemergence, 500 g ai/ha
  Plant response rating: 100
[10]; Postemergence, 31 g ai/ha
  Plant response rating: 50
[10]; Postemergence, 62 g ai/ha
  Plant response rating: 55
[10]; Postemergence, 125 g ai/ha
  Plant response rating: 75
[10]; Postemergence, 250 g ai/ha
  Plant response rating: 85
[10]; Postemergence, 500 g ai/ha
  Plant response rating: 100
[10]; Preemergence, 31 g ai/ha
  Plant response rating: 25
[10]; Preemergence, 62 g ai/ha
  Plant response rating: 25
[10]; Preemergence, 125 g ai/ha
  Plant response rating: 40
[10]; Preemergence, 250 g ai/ha
  Plant response rating: 90
[10]; Preemergence, 500 g ai/ha
  Plant response rating: 90
[11]; Postemergence, 31 g ai/ha
  Plant response rating: 15
[11]; Postemergence, 62 g ai/ha
  Plant response rating: 15
[11]; Postemergence, 125 g ai/ha
  Plant response rating: 25
[11]; Postemergence, 250 g ai/ha
  Plant response rating: 30
[11]; Postemergence, 500 g ai/ha
  Plant response rating: 35
[11]; Preemergence, 31 g ai/ha
  Plant response rating: 10
[11]; Preemergence, 62 g ai/ha
  Plant response rating: 20
[11]; Preemergence, 125 g ai/ha
  Plant response rating: 40
[11]; Preemergence, 250 g ai/ha
  Plant response rating: 75
[11]; Preemergence, 500 g ai/ha
  Plant response rating: 80
